In US20070142392A1, “Uses of rifamycins” (ActivBiotics, Inc., priority 2005, published 2007):
≈ marks a conversion by molar mass, not a printed value.

What was measured:
Format in all cases: cell-based
S. aureus = experiment: MIC values, S. aureus (Tables 1-4)
S. pneumo. = experiment: MIC values, S. pneumo. (Tables 1-4)
E. faecalis = experiment: MIC values, E. faecalis (Tables 1-4)
H. flu = tested on: H. flu
E. coli = experiment: MIC values, E. coli (Tables 1-4)

Row | SMILES | MIC S. aureus (S. aureus) | MIC S. pneumo. (S. pneumo.) | MIC E. faecalis (E. faecalis) | MIC H. flu (H. flu) | MIC E. coli (E. coli)
1 | CO[C@H]1/C=C/O[C@@]2(C)Oc3c(C)c(O)c4c(=O)c(c5oc6c(C)c(N7CCC7)cc(C)c6nc-5c4c3C2=O)NC(=O)/C(C)=C\C=C\[C@H](C)[C@H](O)[C@@H](C)[C@@H](O)[C@@H](C)[C@H](O)[C@@H]1C [Compound 126] | 0.03 µg/mL (≈ 0.0363 µM) | 0.004 µg/mL (≈ 0.00484 µM) | 1 µg/mL (≈ 1.21 µM) | 0.25 µg/mL (≈ 0.303 µM) | 8 µg/mL (≈ 9.69 µM)
2 | COC1C=COC2(C)Oc3c(C)c(O)c4c(=O)c(c5oc6cc(N7CC8C(C7)C8N(C)C)cc(O)c6nc-5c4c3C2=O)NC(=O)C(C)=CC=CC(C)C(O)C(C)C(O)C(C)C(OC(C)=O)C1C (stereo not shown) [Compound 53] | 0.06 µg/mL (≈ 0.0649 µM) | 0.008 µg/mL (≈ 0.00865 µM) | 4 µg/mL (≈ 4.32 µM) | 2 µg/mL (≈ 2.16 µM) | >8 µg/mL
3 | CO[C@H]1/C=C/O[C@@]2(C)Oc3c(C)c(O)c4c(=O)c(c5oc6cc(N7CCC(NC(=O)OC(C)C)CC7)cc(O)c6nc-5c4c3C2=O)NC(=O)/C(C)=C\C=C\[C@H](C)[C@H](O)[C@@H](C)[C@@H](O)[C@@H](C)[C@H](OC(C)=O)[C@@H]1C [Compound 22] | 0.015 µg/mL (≈ 0.0152 µM) | 0.00025 µg/mL (≈ 0.000254 µM) | 4 µg/mL (≈ 4.06 µM) | 2 µg/mL (≈ 2.03 µM) | >8 µg/mL
4 | COC1C=COC2(C)Oc3c(C)c(O)c4c(=O)c(c5sc6cc(N7CC(C)N(CC8CC8)CC7C)ccc6nc-5c4c3C2=O)NC(=O)C(C)=CC=CC(C)C(O)C(C)C(O)C(C)C(O)C1C (stereo not shown) [Compound 70] | 0.03 µg/mL (≈ 0.0324 µM) | 0.001 µg/mL (≈ 0.00108 µM) | 1 µg/mL (≈ 1.08 µM) | 1 µg/mL (≈ 1.08 µM) | >8 µg/mL
5 | CCOC(=O)C1CCN(c2cc(O)c3nc4c5c6c7c(C)c(O)c5c(=O)c(c-4oc3c2)NC(=O)/C(C)=C\C=C\[C@H](C)[C@H](O)[C@@H](C)[C@@H](O)[C@@H](C)[C@H](O)[C@H](C)[C@@H](OC)/C=C/O[C@@](C)(O7)C6=O)CC1 [Compound 113] | 0.004 µg/mL (≈ 0.00438 µM) | 0.008 µg/mL (≈ 0.00875 µM) | 0.5 µg/mL (≈ 0.547 µM) | 0.12 µg/mL (≈ 0.131 µM) | >8 µg/mL
6 | CO[C@H]1/C=C/O[C@@]2(C)Oc3c(C)c(O)c4c(=O)c(c5oc6c(F)c(N7CCN(CC(C)C)CC7)ccc6nc-5c4c3C2=O)NC(=O)/C(C)=C\C=C\[C@H](C)[C@H](O)[C@@H](C)[C@@H](O)[C@@H](C)[C@H](O)[C@@H]1C [Compound 109] | 0.03 µg/mL (≈ 0.0333 µM) | 0.008 µg/mL (≈ 0.00888 µM) | 0.5 µg/mL (≈ 0.555 µM) | 0.5 µg/mL (≈ 0.555 µM) | 8 µg/mL (≈ 8.88 µM)
7 | CCCC(=O)NC1CCN(c2cc(O)c3nc4c5c6c7c(C)c(O)c5c(=O)c(c-4oc3c2)NC(=O)/C(C)=C\C=C\[C@H](C)[C@H](O)[C@@H](C)[C@@H](O)[C@@H](C)[C@H](OC(C)=O)[C@H](C)[C@@H](OC)/C=C/O[C@@](C)(O7)C6=O)CC1 [Compound 24] | 0.015 µg/mL (≈ 0.0155 µM) | 0.001 µg/mL (≈ 0.00103 µM) | 2 µg/mL (≈ 2.06 µM) | 2 µg/mL (≈ 2.06 µM) | >8 µg/mL
8 | COC1C=COC2(C)Oc3c(C)c(O)c4c(=O)c(c5oc6cc(N7CC8CCCNC8C7)cc(O)c6nc-5c4c3C2=O)NC(=O)C(C)=CC=CC(C)C(O)C(C)C(O)C(C)C(O)C1C (stereo not shown) [Compound 142] | 0.12 µg/mL (≈ 0.136 µM) | 0.004 µg/mL (≈ 0.00453 µM) | 4 µg/mL (≈ 4.53 µM) | 4 µg/mL (≈ 4.53 µM) | >8 µg/mL
9 | CCOc1c(N2CCN(CCOC)CC2)cc(N2CCN(CCOC)CC2)c2nc3c4c5c6c(C)c(O)c4c(=O)c(c-3oc12)NC(=O)/C(C)=C\C=C\[C@H](C)[C@H](O)[C@@H](C)[C@@H](O)[C@@H](C)[C@H](O)[C@H](C)[C@@H](OC)/C=C/O[C@@](C)(O6)C5=O [Compound 95] | 0.12 µg/mL (≈ 0.112 µM) | 0.001 µg/mL (≈ 0.000933 µM) | 8 µg/mL (≈ 7.47 µM) | 2 µg/mL (≈ 1.87 µM) | >8 µg/mL
10 | COC1C=COC2(C)Oc3c(C)c(O)c4c(=O)c(c5oc6cc(N7CC8C(C7)C8NC(=O)OCC[Si](C)(C)C)cc(O)c6nc-5c4c3C2=O)NC(=O)C(C)=CC=CC(C)C(O)C(C)C(O)C(C)C(OC(C)=O)C1C (stereo not shown) [Compound 2] | 1 µg/mL (≈ 0.96 µM) | 0.03 µg/mL (≈ 0.0288 µM) | >8 µg/mL | >8 µg/mL | >8 µg/mL
11 | CO[C@H]1/C=C/O[C@@]2(C)Oc3c(C)c(O)c4c(=O)c(c5oc6cc(N7CCC(c8ccccc8)CC7)cc(O)c6nc-5c4c3C2=O)NC(=O)/C(C)=C\C=C\[C@H](C)[C@H](O)[C@@H](C)[C@@H](O)[C@@H](C)[C@H](O)[C@@H]1C [Compound 62] | 0.015 µg/mL (≈ 0.0163 µM) | 0.008 µg/mL (≈ 0.00871 µM) | 8 µg/mL (≈ 8.71 µM) | 0.5 µg/mL (≈ 0.545 µM) | >8 µg/mL
12 | CO[C@H]1/C=C/O[C@@]2(C)Oc3c(C)c(O)c4c(=O)c(c5oc6cc(N7C[C@@H]8CCCN(C)[C@@H]8C7)cc(O)c6nc-5c4c3C2=O)NC(=O)/C(C)=C\C=C\[C@H](C)[C@H](O)[C@@H](C)[C@@H](O)[C@@H](C)[C@H](O)[C@@H]1C [Compound 59] | 0.004 µg/mL (≈ 0.00446 µM) | 0.001 µg/mL (≈ 0.00111 µM) | 0.06 µg/mL (≈ 0.0669 µM) | 0.12 µg/mL (≈ 0.134 µM) | 4 µg/mL (≈ 4.46 µM)
13 | CCOC(=O)NC1CCN(c2ccc3nc4c5c6c7c(C)c(O)c5c(=O)c(c-4n(C)c3c2)NC(=O)/C(C)=C\C=C\[C@H](C)[C@H](O)[C@@H](C)[C@@H](O)[C@@H](C)[C@H](O)[C@H](C)[C@@H](OC)/C=C/O[C@@](C)(O7)C6=O)CC1 [Compound 31] | 0.03 µg/mL (≈ 0.0324 µM) | 0.0005 µg/mL (≈ 0.00054 µM) | 0.25 µg/mL (≈ 0.27 µM) | 0.25 µg/mL (≈ 0.27 µM) | 8 µg/mL (≈ 8.64 µM)
14 | CO[C@H]1/C=C/O[C@@]2(C)Oc3c(C)c(O)c4c(=O)c(c5oc6cc(N7CCC(C)(N(C)C)CC7)cc(O)c6nc-5c4c3C2=O)NC(=O)/C(C)=C\C=C\[C@H](C)[C@H](O)[C@@H](C)[C@@H](O)[C@@H](C)[C@H](O)[C@@H]1C [Compound 73] | 0.002 µg/mL (≈ 0.00222 µM) | 0.00025 µg/mL (≈ 0.000278 µM) | 0.03 µg/mL (≈ 0.0334 µM) | 0.12 µg/mL (≈ 0.133 µM) | 2 µg/mL (≈ 2.22 µM)
15 | CO[C@H]1/C=C/O[C@@]2(C)Oc3c(C)c(O)c4c(=O)c(c5oc6cc(N7CCC(C)(NC(C)=O)CC7)cc(O)c6nc-5c4c3C2=O)NC(=O)/C(C)=C\C=C\[C@H](C)[C@H](O)[C@@H](C)[C@@H](O)[C@@H](C)[C@H](O)[C@@H]1C [Compound 74] | 0.03 µg/mL (≈ 0.0329 µM) | 0.001 µg/mL (≈ 0.0011 µM) | 0.5 µg/mL (≈ 0.548 µM) | 0.12 µg/mL (≈ 0.131 µM) | >8 µg/mL
16 | COC(=O)NC1CCN(c2cc(O)c3nc4c5c6c7c(C)c(O)c5c(=O)c(c-4oc3c2)NC(=O)/C(C)=C\C=C\[C@H](C)[C@H](O)[C@@H](C)[C@@H](O)[C@@H](C)[C@H](O)[C@H](C)[C@@H](OC)/C=C/O[C@@](C)(O7)C6=O)CC1 [Compound 30] | 0.015 µg/mL (≈ 0.0164 µM) | 0.002 µg/mL (≈ 0.00219 µM) | 1 µg/mL (≈ 1.09 µM) | 0.5 µg/mL (≈ 0.546 µM) | >8 µg/mL
17 | COC1C=COC2(C)Oc3c(C)c(O)c4c(=O)c(c5oc6cc(N7CC8C(N)C8C7)cc(O)c6nc-5c4c3C2=O)NC(=O)C(C)=CC=CC(C)C(O)C(C)C(O)C(C)C(OC(C)=O)C1C (stereo not shown) [Compound 4] | 0.03 µg/mL (≈ 0.0334 µM) | 0.00025 µg/mL (≈ 0.000279 µM) | 0.5 µg/mL (≈ 0.557 µM) | 0.25 µg/mL (≈ 0.279 µM) | >8 µg/mL
18 | COC1C=COC2(C)Oc3c(C)c(O)c4c(=O)c(c5oc6cc(N7CCN8CCCC8C7)cc(O)c6nc-5c4c3C2=O)NC(=O)C(C)=CC=CC(C)C(O)C(C)C(O)C(C)C(O)C1C (stereo not shown) [Compound 88] | 0.004 µg/mL (≈ 0.00453 µM) | 0.00025 µg/mL (≈ 0.000283 µM) | 0.03 µg/mL (≈ 0.034 µM) | 0.25 µg/mL (≈ 0.283 µM) | 8 µg/mL (≈ 9.06 µM)
19 | CO[C@H]1/C=C/O[C@@]2(C)Oc3c(C)c(O)c4c(=O)c(c5oc6cc(N7CCCC7)c(C7CCCCC7)cc6nc-5c4c3C2=O)NC(=O)/C(C)=C\C=C\[C@H](C)[C@H](O)[C@@H](C)[C@@H](O)[C@@H](C)[C@H](O)[C@@H]1C [Compound 118] | 2 µg/mL (≈ 2.24 µM) | 0.25 µg/mL (≈ 0.28 µM) | >8 µg/mL | 8 µg/mL (≈ 8.95 µM) | >8 µg/mL
20 | COC1C=COC2(C)Oc3c(C)c(O)c4c(=O)c(c5oc6cc(N7CC8CCCNC8C7)cc(O)c6nc-5c4c3C2=O)NC(=O)C(C)=CC=CC(C)C(O)C(C)C(O)C(C)C(OC(C)=O)C1C (stereo not shown) [Compound 5] | 0.015 µg/mL (≈ 0.0162 µM) | 0.00025 µg/mL (≈ 0.00027 µM) | 0.5 µg/mL (≈ 0.541 µM) | 2 µg/mL (≈ 2.16 µM) | 8 µg/mL (≈ 8.65 µM)
21 | CO[C@H]1/C=C/O[C@@]2(C)Oc3c(C)c(O)c4c(=O)c(c5oc6cc(N7CCC(CNC(C)=O)CC7)cc(O)c6nc-5c4c3C2=O)NC(=O)/C(C)=C\C=C\[C@H](C)[C@H](O)[C@@H](C)[C@@H](O)[C@@H](C)[C@H](OC(C)=O)[C@@H]1C [Compound 55] | 0.008 µg/mL (≈ 0.00838 µM) | 0.00025 µg/mL (≈ 0.000262 µM) | 1 µg/mL (≈ 1.05 µM) | 0.5 µg/mL (≈ 0.524 µM) | 8 µg/mL (≈ 8.38 µM)
22 | CO[C@H]1/C=C/O[C@@]2(C)Oc3c(C)c(O)c4c(=O)c(c5oc6cc(N7CCC(NC(=O)SC)CC7)cc(O)c6nc-5c4c3C2=O)NC(=O)/C(C)=C\C=C\[C@H](C)[C@H](O)[C@@H](C)[C@@H](O)[C@@H](C)[C@H](OC(C)=O)[C@@H]1C [Compound 45] | 0.015 µg/mL (≈ 0.0154 µM) | 0.001 µg/mL (≈ 0.00103 µM) | 4 µg/mL (≈ 4.11 µM) | 0.5 µg/mL (≈ 0.514 µM) | 8 µg/mL (≈ 8.22 µM)
23 | CO[C@H]1/C=C/O[C@@]2(C)Oc3c(C)c(O)c4c(=O)c(c5oc6cc(N7CCC(F)(F)CC7)ccc6nc-5c4c3C2=O)NC(=O)/C(C)=C\C=C\[C@H](C)[C@H](O)[C@@H](C)[C@@H](O)[C@@H](C)[C@H](O)[C@@H]1C [Compound 115] | 0.03 µg/mL (≈ 0.0348 µM) | 0.015 µg/mL (≈ 0.0174 µM) | 1 µg/mL (≈ 1.16 µM) | 0.25 µg/mL (≈ 0.29 µM) | >8 µg/mL
